One experiment has as its system K562 cells. In words: Cell Titer Glo 2.0 cell viability assay. The format is cell-based. The note with it: Homo sapiens, 500 cells/well, 72 hours. Put shortly: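 K562 cells (500/well) in IMDM with 10% FBS were exposed to serially diluted compounds at 0.1% DMSO final. After 72 h at 37° C, 5% CO2, viability was read by CellTiter-Glo 2.0 luminescence, with medium-only blanks.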

Experiment [1] deals with HiBiT-tagged MYB protein in K562 cells. In words: HiBit protein abundance assay, MYB. It counts as cell-based, human. The note with it: K562 HiBiT-modified cells, 24 hours, luminescence. The procedure:
(§1) Compounds described herein were used to screen for effects on quantitative protein abundance using a HiBit assay system (Promega). Quantitative protein abundance was determined by measuring the protein levels of HiBit-tagged protein targets expressed in cell culture via luminescence using the Nano-Glo HiBiT Lytic Detection System, which uses a split complementation assay format to reconstitute NanoBiT enzyme to generate a luminescent signal. A protein abundance assay was developed such that endogenous protein targets could be modified with the HiBiT peptide tag and their abundance could be assessed after compound treatment. Briefly, K562 cell lines containing a HiBiT-modification were treated with various compounds described herein (e.g., compounds of Formulas (I), (II), or (III)). After treatment for 24 hours, the protein abundance of a specific target was determined by measuring luminescence. • Promega Nano-Glo HiBiT Lytic Detection System (cat #N3030) • Corning 384-well TC-treated microplates (cat #3570) • Synthego Engineered Cells Knock-In Clones [table] Cells were maintained in IMDM with 10% FBS. Before the assay, cells were diluted with phenolphthalein-free growth media (IMDM+1% FBS media) and were seeded in a 384-well plate at a density of 10000 cells/well (for each cell line listed in Table 6). Each compound was prepared as a 10-point 3-fold serial dilution in DMSO with the top dose at a final concentration of 10 μM in the well. Unmodified K562 cells were added at the previously specified density with DMSO to serve as an assay baseline and positive control (PC) and DMSO only with the respective modified cell lines was added to the negative control (NC) columns. Final DMSO concentration was kept at or below 0.25%. Treated cell plates were placed in an incubator at 37° C. with 5% CO2 for 24 hours. After 24 hours, 25 μL of Complete HiBit Lytic reagent was added to each well at room temperature (e.g. one plate requiring 10 mL Lytic Buffer, 100 μL LgBiT Protein, 200 μL Lytic Substrate), shaken for 5 minutes at 600 RPM, then left to sit for 10 minutes for signal to stabilize before reading on a Spark Cyto plate reader (Tecan) with a 500 ms measurement time. To determine compound effects on protein abundance of each target in Table 6, the percent response for each respective cell line was calculated at each compound concentration as follows: For the normalized response at each concentration, a four-parameter logistical regression was fit to the data and the response was interpolated at the 50% value to determine a concentration for protein abundance at 50% (IC50) the untreated control.
In general terms: The HiBiT peptide binds its large partner to form an active luciferase.

The subject of another experiment is Target C. In words: HiBit protein abundance assay, Target C. Conditions: Homo sapiens; K562 HiBiT-modified cells, 24 hours, luminescence. It counts as cell-based. The procedure: as §1, with “Clones” for “Clones [table]”

Each structure is given as a SMILES string.

As to `Cc1cn2nc(-c3cc(F)c4nn([C@@H]5CCNC6(CC6)C5)cc4c3)cc(C)c2n1` [Compound 173], the 50% growth inhibitory concentration (GI50) (usually the concentration giving 50% growth inhibition) with K562 cells was 100 to 1000 nM. For the same compound, the IC50 (commonly the concentration at which inhibition is half-maximal) in experiment [1] was 100 to 1000 nM; with Target C it was under 100 nM.

In the case of `Cc1cn2nc(-c3ccc4nn(C5CCNCC5)cc4n3)cc(C)c2n1` [Compound 138, 2,8-dimethyl-6-[2-(4-piperidyl)pyrazolo[4,3-b]pyridin-5-yl]imidazo[1,2-b]pyridazine], the GI50 in the experiment on K562 cells was 1000 to 10000 nM. In addition, the IC50 (in experiment [1]; in the experiment on Target C) was 100 to 1000 nM throughout.

Turning to `Cc1cn2nc(-c3cc(F)c4nn(CC5CCNCC5)cc4c3)cc(C)c2n1` [Compound 212, 6-[7-fluoro-2-(4-piperidylmethyl)indazol-5-yl]-2,8-dimethyl-imidazo[1,2-b]pyridazine], the GI50 in the experiment with K562 cells lay within 100 to 1000 nM. The IC50 in experiment [1] was 100 to 1000 nM; in the experiment on Target C, under 100 nM.

Consider `Cc1cn2nc(-c3cc(F)c4nn(C5CCN(C6CCC6)C6(CC6)C5)cc4c3)cc(C)c2n1` (stereo not drawn) [Compound 186, 6-[2-(4-cyclobutyl-4-azaspiro[2.5]octan-7-yl)-7-fluoro-indazol-5-yl]-2,8-dimethyl-imidazo[1,2-b]pyridazine], for which the GI50 with K562 cells lay in the range of 100 to 1000 nM. Further, the results for the IC50 (in experiment [1]; with Target C) were 100 to 1000 nM and under 100 nM, respectively.

With `Cc1cn2nc(-c3cc(F)c4nn(C5CCNC6(CCC6)C5)cc4c3)cc(C)c2n1` (stereo not drawn) [Compound 189, 6-[2-(5-azaspiro[3.5]nonan-8-yl)-7-fluoro-indazol-5-yl]-2,8-dimethyl-imidazo[1,2-b]pyridazine], the GI50 with K562 cells was 100 to 1000 nM. In addition, the IC50 was 100 to 1000 nM in experiment [1] and under 100 nM in the experiment with Target C.

With `Cc1cn2nc(-c3cc4cn(C5CCNCC5)nc4cc3O)cc(C)c2n1` [Compound 154, 5-(2,8-dimethylimidazo[1,2-b]pyridazin-6-yl)-2-(piperidin-4-yl)-2H-indazol-6-ol], the GI50 with K562 cells fell in the range of 100 to 1000 nM. Further, the IC50 in experiment [1] is 100 to 1000 nM; with Target C, under 100 nM.

In the case of `Cn1cc2cc(-c3cc(F)c4nn(C5CCNC6(CC6)C5)cc4c3)cc(F)c2n1` (stereo not drawn) [Compound 108, 2-(4-azaspiro[2.5]octan-7-yl)-7-fluoro-5-(7-fluoro-2-methyl-indazol-5-yl)indazole], the GI50 with K562 cells lay within 100 to 1000 nM. Moreover, the IC50 (in experiment [1]; in the experiment with Target C) was 100 to 1000 nM throughout.

In the experiment on K562 cells, `Cc1cn2nc(-c3cc(F)c4nn([C@H]5CCNC[C@@H]5F)cc4c3)cc(C)c2n1` [Compound 167, 6-(7-fluoro-2-((3S,4S)-3-fluoropiperidin-4-yl)-2H-indazol-5-yl)-2,8-dimethylimidazo[1,2-b]pyridazine] returned a GI50 of 1000 to 10000 nM. Further, the IC50 in experiment [1] lay in the range of 1000 to 10000 nM; with Target C, 100 to 1000 nM.

In the experiment on K562 cells, `Cc1ccc2cc(-c3cc(F)c4nn(C5CCNCC5)cc4c3)ccc2n1` [Compound 163, 6-[7-fluoro-2-(4-piperidyl)indazol-5-yl]-2-methyl-quinoline] had a GI50 of 1000 to 10000 nM. For the same compound, the IC50 (in experiment [1]; with Target C) was 1000 to 10000 nM in each case.

Compound `Cc1c(O)c(-c2cc(F)c3nn(C4CCNCC4)cc3c2)cc2cn(C)nc12` [Compound 126, 5-[7-fluoro-2-(4-piperidyl)indazol-5-yl]-2,7-dimethyl-indazol-6-ol] showed a GI50 in the experiment on K562 cells of over 10000 nM. Also, the IC50 is over 10000 nM in experiment [1] and 1000 to 10000 nM with Target C.

Regarding `Cc1cn2nc(-c3cc(F)c4nn([C@H]5CCNC6(CC6)C5)cc4c3)cc(C)c2n1` [Compound 172], the concentration for 50% growth inhibition (GI50) with K562 cells is 100 to 1000 nM. For the same compound, the concentration for half-maximal inhibition (IC50) (in experiment [1]; in the experiment on Target C) was under 100 nM throughout.

Compound `Cc1nc2c(C)cc(-c3cc(F)c4nn(C5CCNCC5)cc4c3)cc2o1` [Compound 137, 6-[7-fluoro-2-(4-piperidyl)indazol-5-yl]-2,4-dimethyl-1,3-benzoxazole] had a GI50 with K562 cells of 100 to 1000 nM. Further, the concentration for half-maximal inhibition (IC50) was 100 to 1000 nM in experiment [1] and under 100 nM in the experiment on Target C.

On to `CCN1CCC(n2cc3cc(-c4cc(F)c5nn(C)cc5c4)cc(F)c3n2)CC1` [Compound 104, 2-(1-ethyl-4-piperidyl)-7-fluoro-5-(7-fluoro-2-methyl-indazol-5-yl)indazole], for which the GI50 with K562 cells fell in the range of 1000 to 10000 nM. The IC50 (in experiment [1]; in the experiment on Target C) was 100 to 1000 nM throughout.

In turn, `COC1=C(C)C2N=C(C)OC2C=C1c1cc(F)c2nn(C3CCNCC3)cc2n1` (stereo not drawn) [Compound 144] came in with a GI50 in the experiment with K562 cells of 1000 to 10000 nM. Also, the IC50 (in experiment [1]; in the experiment on Target C) was 1000 to 10000 nM each time.

In the experiment on K562 cells, `Cc1cn2cc(-c3cc(F)c4nn(C5CCNCC5)cc4c3)cc(F)c2n1` [Compound 129, 7-fluoro-5-(8-fluoro-2-methylimidazo[1,2-a]pyridin-6-yl)-2-(piperidin-4-yl)-2H-indazole] yielded a GI50 of 100 to 1000 nM. The IC50 was 100 to 1000 nM in experiment [1] and under 100 nM with Target C.

`CCN1CCC(n2cc3cc(-c4cc(C)c5nc(C)cn5n4)cc(F)c3n2)CC1` [Compound 146, 6-[2-(1-ethyl-4-piperidyl)-7-fluoro-indazol-5-yl]-2,8-dimethyl-imidazo[1,2-b]pyridazine]: the GI50 in the experiment with K562 cells was 100 to 1000 nM. For the same compound, the half-inhibitory concentration (IC50) in experiment [1] was 100 to 1000 nM; in the experiment on Target C, under 100 nM.

Turning to `Cc1cn2nc(-c3cc(F)c4nn(C5CCN(C)C6(CC6)C5)cc4c3)cc(C)c2n1` (stereo not drawn) [Compound 174, 6-[7-fluoro-2-(4-methyl-4-azaspiro[2.5]octan-7-yl)indazol-5-yl]-2,8-dimethyl-imidazo[1,2-b]pyridazine], the GI50 in the experiment with K562 cells was in the range of 100 to 1000 nM. Further, the figures for the IC50 (in experiment [1]; with Target C) were 100 to 1000 nM and under 100 nM, respectively.

In the experiment on K562 cells, `Cc1cn2cc(-c3cc(F)c4nn(C5CCNCC5)cc4c3)cc(C)c2n1` [Compound 125, 5-(2,8-dimethylimidazo[1,2-a]pyridin-6-yl)-7-fluoro-2-(4-piperidyl)indazole] returned a GI50 of 100 to 1000 nM. The values for the IC50 (in experiment [1]; with Target C) were 100 to 1000 nM and under 100 nM, respectively.

Consider `Cc1c(O)c(-c2ccc3nn(C4CCNCC4)nc3n2)cc2cn(C)nc12` [Compound 113, 2,7-dimethyl-5-[2-(4-piperidyl)triazolo[4,5-b]pyridin-5-yl]indazol-6-ol], for which the GI50 in the experiment on K562 cells is 1000 to 10000 nM. Further, the IC50 (in experiment [1]; with Target C) was 1000 to 10000 nM throughout.

Compound `Cn1cc2cc(-c3ccc4nn(C5CCNCC5)cc4c3)cc(F)c2n1` [Compound 105, 7-fluoro-2-methyl-5-[2-(4-piperidyl)indazol-5-yl]indazole] registered a GI50 with K562 cells of 100 to 1000 nM. Besides, the IC50 (in experiment [1]; in the experiment with Target C) was 100 to 1000 nM each time.

Source of the values: patent publication US20250082633A1, “COMPOUNDS AND METHODS FOR MODULATING SPLICING” (REMIX THERAPEUTICS INC., priority 2021, published 2025).
